This passage reports GI50 and TGI results from PubChem BioAssay (NCI).

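Grown in 96-well plates, cells were treated for 48 hours with each compound at five concentrations. Insufficient inhibition: endpoint recorded as highest concentration tested. GI50 is the concentration that inhibits growth by half. TGI denotes the concentration required for complete inhibition of growth.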

Some test systems named below: U251 CNS; ACHN renal; BT-549 breast; HS 578T breast; SF-295 CNS; SR leukemia; UACC-62 melanoma; SNB-75 CNS; MCF7 breast; IGROV1 ovarian.
Holding throughout (assay): NCI-60 cell line screen, 48 h

Regarding `Cn1cc(-c2ccc3ncc(-c4ccc(CC(=O)Nc5cc(C(C)(C)C)nn5C)cc4)cc3c2)cn1`, the GI50 is 2.11 µM with U251 CNS; 0.689 µM in the experiment on ACHN renal; 0.589 µM with BT-549 breast; 0.798 µM in the experiment with HS 578T breast; 1.58 µM in the experiment with SF-295 CNS; 0.967 µM in the experiment on SR leukemia. Besides, the GI50 in the experiment on UACC-62 melanoma is 1.26 µM; in the experiment with SNB-75 CNS, 0.37 µM; in the experiment with MCF7 breast it was 1.47 µM; with IGROV1 ovarian it was 0.568 µM. Also, the TGI with U251 CNS is above 20 µM; in the experiment on ACHN renal it was above 20 µM; in the experiment on BT-549 breast, 2.78 µM; in the experiment with HS 578T breast, above 20 µM; with SF-295 CNS, above 20 µM; in the experiment on SR leukemia it was above 20 µM. Also, the TGI in the experiment on UACC-62 melanoma is 6.65 µM; in the experiment with SNB-75 CNS it was above 20 µM; with MCF7 breast, above 20 µM; in the experiment on IGROV1 ovarian, above 20 µM.
Regarding `N=C(N)n1cc(/C=N/N=C(N)N)cn1`, the TGI in the experiment on U251 CNS, with ACHN renal, with BT-549 breast, with HS 578T breast, with SF-295 CNS and with SR leukemia was above 100 µM in each case. The TGI in the experiment with UACC-62 melanoma, with SNB-75 CNS, with MCF7 breast and in the experiment with IGROV1 ovarian was above 100 µM in each case.
With `CCOC(=O)[C@@H](C)C[C@H](Cc1ccccc1)NC(=O)c1csc([C@@H](C[C@H](C(C)C)N(C)C(=O)CNC(=O)[C@H]2CCCCN2C)OC(C)=O)n1`, the GI50 in the experiment with U251 CNS is 1 µM; in the experiment on ACHN renal, 0.837 µM; in the experiment with BT-549 breast it was 0.891 µM; in the experiment with HS 578T breast, 1.5 µM; in the experiment with SF-295 CNS, 0.621 µM; in the experiment on SR leukemia, 0.145 µM. The GI50 is 0.514 µM in the experiment with UACC-62 melanoma, 0.534 µM in the experiment on SNB-75 CNS, 0.319 µM in the experiment on MCF7 breast and 0.628 µM with IGROV1 ovarian. In addition, the TGI was above 14.3 µM with U251 CNS; above 14.3 µM with ACHN renal; above 14.3 µM in the experiment with BT-549 breast; above 8.43 µM with HS 578T breast; 6.85 µM in the experiment with SF-295 CNS; above 14.3 µM with SR leukemia. Besides, the TGI with UACC-62 melanoma, with SNB-75 CNS, in the experiment on MCF7 breast and in the experiment on IGROV1 ovarian was above 14.3 µM throughout.
As to `CN(C)CCCOc1ccc(NC2=C(Cl)C(=O)C(Nc3ccc(OCCCN(C)C)cc3)=C(Cl)C2=O)cc1`, the GI50 in the experiment with U251 CNS was 1.53 µM; with ACHN renal, 1.66 µM; in the experiment with BT-549 breast, 1.71 µM; in the experiment with HS 578T breast, 1.59 µM; with SF-295 CNS, 1.67 µM; in the experiment on SR leukemia it was 0.312 µM. Besides, the GI50 was 1.61 µM in the experiment on UACC-62 melanoma, 1.78 µM with SNB-75 CNS, 0.15 µM with MCF7 breast and 0.544 µM in the experiment on IGROV1 ovarian. In addition, the TGI in the experiment on U251 CNS stood at 2.94 µM; with ACHN renal it was 3.02 µM; in the experiment on BT-549 breast, 3.08 µM; in the experiment on HS 578T breast, 4.2 µM; in the experiment with SF-295 CNS, 3.19 µM; in the experiment on SR leukemia, 3.25 µM. Moreover, the TGI in the experiment on UACC-62 melanoma came out at 3.09 µM; with SNB-75 CNS it was 3.4 µM; in the experiment on MCF7 breast, 0.376 µM; in the experiment with IGROV1 ovarian it was 1.11 µM.
As for `CN(C)CCNC(=O)Nc1ccc(N(C)c2ccnc(Nc3ccc(CS(C)(=O)=O)cc3)n2)cc1`, the GI50 in the experiment with U251 CNS is above 25 µM; with ACHN renal, above 25 µM; in the experiment on BT-549 breast, above 25 µM; in the experiment on HS 578T breast it was above 19.8 µM; in the experiment on SF-295 CNS it was above 25 µM; in the experiment with SR leukemia, 14.8 µM. In addition, the GI50 with UACC-62 melanoma is above 25 µM; in the experiment with SNB-75 CNS it was above 12.7 µM; in the experiment with MCF7 breast, above 25 µM; in the experiment on IGROV1 ovarian, above 25 µM. In addition, the TGI with U251 CNS, with ACHN renal, with BT-549 breast, in the experiment on HS 578T breast, in the experiment on SF-295 CNS and in the experiment on SR leukemia was above 25 µM in each case. Also, the TGI in the experiment on UACC-62 melanoma, in the experiment on SNB-75 CNS, with MCF7 breast and with IGROV1 ovarian was above 25 µM throughout.
Take `OCCNc1nc2ccccc2c2[nH]c3ccccc3c12`: the GI50 in the experiment on U251 CNS was 0.661 µM; in the experiment on ACHN renal, 0.278 µM; with BT-549 breast it was 1.73 µM; with HS 578T breast, 0.71 µM; in the experiment on SF-295 CNS it was 0.314 µM; in the experiment with SR leukemia it was 0.206 µM. For the same compound, the GI50 with UACC-62 melanoma is 1.36 µM; with SNB-75 CNS it was 1.88 µM; in the experiment on MCF7 breast, 0.355 µM; in the experiment with IGROV1 ovarian, 0.397 µM. The TGI with U251 CNS turned out to be 4.31 µM; with ACHN renal, 2.67 µM; in the experiment with BT-549 breast, 6.68 µM; in the experiment with HS 578T breast it was 4.57 µM; in the experiment with SF-295 CNS it was 2.42 µM; in the experiment on SR leukemia, 5.95 µM. The TGI in the experiment on UACC-62 melanoma was 6.52 µM; in the experiment on SNB-75 CNS it was 4.2 µM; in the experiment on MCF7 breast, 2 µM; in the experiment with IGROV1 ovarian, 6.1 µM.
On to `Nc1ncnc2c1c(-c1ccc(Oc3ccccc3)cc1)nn2CC1SSCC1O` (stereo not given), for which the GI50 in the experiment with U251 CNS was 4.31 µM; with ACHN renal, 4.27 µM; in the experiment on BT-549 breast it was 7.11 µM; in the experiment on HS 578T breast, 5.84 µM; in the experiment on SF-295 CNS it was 6.36 µM; with SR leukemia, 0.251 µM. Also, the GI50 is 0.63 µM in the experiment with UACC-62 melanoma, 5.79 µM with SNB-75 CNS, 1.44 µM in the experiment on MCF7 breast and 2.44 µM in the experiment on IGROV1 ovarian. Further, the TGI with U251 CNS was determined as 9.66 µM; with ACHN renal, 14.9 µM; in the experiment with BT-549 breast, 17.1 µM; in the experiment on HS 578T breast it was 19.3 µM; in the experiment with SF-295 CNS, 15.8 µM; with SR leukemia it was 2.11 µM. In addition, the TGI came to 1.33 µM with UACC-62 melanoma, 14.9 µM in the experiment on SNB-75 CNS, 7.85 µM in the experiment on MCF7 breast and 8.31 µM with IGROV1 ovarian.
On to `S=C(Sc1ccc(Cl)cc1)Sc1ccc(Cl)cc1`, for which the GI50 was 2.64 µM in the experiment with U251 CNS; 3.23 µM with ACHN renal; 1.21 µM in the experiment with BT-549 breast; 3.96 µM with HS 578T breast; 1.01 µM in the experiment with SF-295 CNS; 0.362 µM in the experiment with SR leukemia. Further, the GI50 in the experiment on UACC-62 melanoma was 3.15 µM; in the experiment on SNB-75 CNS, 3.5 µM; in the experiment on MCF7 breast it was 2.38 µM; in the experiment on IGROV1 ovarian it was 1.81 µM. Moreover, the TGI is 8.92 µM in the experiment with U251 CNS; 11 µM with ACHN renal; 3.16 µM in the experiment with BT-549 breast; 16.3 µM in the experiment on HS 578T breast; 6.58 µM in the experiment on SF-295 CNS; 2.03 µM in the experiment on SR leukemia. Moreover, the TGI came out at 10.6 µM with UACC-62 melanoma, 16.3 µM in the experiment on SNB-75 CNS, 7.59 µM in the experiment on MCF7 breast and 3.47 µM in the experiment with IGROV1 ovarian.
